Laboratory results taken from US20150004620A1, “METHOD OR DEVICE FOR IDENTIFYING INHIBITOR OF EPITHELIAL MESENCHYMAL TRANSITION” (Agency for Science, Technology and Research, priority 2011, published 2015).
Where two headings read alike, the source gives them in different places.

Experiments:
Assay type in all cases: cell-based
[1] = system: EGF-induced EMT in NBT-II cells; test: EMT spot migration assay, EGF-induced; conditions: for IC50: read-out: Cell Dispersion IC 50, EGF; for Cell dispersion pattern at T2 (FIG. 1D): 6.67 μM compound and EGF
Method: (§1) NBT-II cells were stably transfected with mcherry-fluorescent H2B and maintained in DMEM supplemented with 10% fetal bovine serum (FBS, Thermo Scientific), 1 μg/ml puromycin (Sigma) and 100 units/ml penicillin-streptomycin (1× pen-strep, Invitrogen). Cells were grown to 80% confluency in tissue culture flasks prior to plating. Cells were trypsinized and concentrated to a density of 5×10^6 cell/ml in CO2-independent medium (Invitrogen) supplemented with 10% FBS. The cell suspension was then evenly dispersed into the wells of two columns of a 96-well V-bottom plate. Using a robotic liquid-handling station (Bravo, Agilent Technologies), 0.5 μl of cell suspension was transferred from the two columns of the cell suspension-loaded plate and deposited into the center of the wells of two columns of a 96-well clear bottom, black assay plate (Corning). This process was repeated six times so that all 96 wells of the assay plate were deposited with a cell suspension spot. The plate was then sealed to minimize evaporation of the cell suspension spots and transferred to a 37° C., 5% CO2 incubator to allow for cells to attach to the culture surface. After 1 hour, the plate was gently washed with medium once to remove unattached cells, refreshed with 100 μl of assay medium (DMEM supplemented with 10% FBS and 1× pen-strep), and then further incubated to allow for cell-cell contacts to establish in the cell colonies.
(§2) Four tiled, non-overlapping images were acquired around the center of each well, and were then stitched together during image analysis to generate a montage covering an area of 3.2 mm×3.2 mm. These images (T1) represent the initial state of the cell colonies before EMT induction.
(§3) After the T1 images were acquired, 1 μl of test compounds were transferred from compound stock plates and added to the assay plates. Appropriate negative controls (1 μl DMSO) and positive controls (1 μl 1.0 mM compound in DMSO) were also added into columns 1 and 12 of each assay plate, respectively. […] The cultures were then further incubated overnight.
(§4) The next day, 50 μl of growth factor-containing medium was added to each well of the assay-plates. For each of the growth factor-induced EMT spot migration assays, the final growth factor concentrations in each well is optimized to be 20 ng/ml EGF (Sigma), 4 ng/ml HGF (Calbiochem) or 150 ng/ml IGF-1 (R&D Systems), respectively. The cultures were then incubated for another 24 hours, to allow for EMT and sufficient cell motility/dispersion to occur in the cell colonies.
(§5) Finally, the cell colonies were imaged again using the microplate imager, as described above. These images (T2) represent the final state of the cell colonies after compound treatment and EMT induction. The acquired T1 and T2 image sets for each assay plate were then sent for image analysis.
(§6) The acquisition of each well was obtained by four adjacent field images with no interstice in between. Each field image was loaded and nuclei were initially segmented independently of other fields to prevent artifact at the field border. Nuclei segmentation was achieved by combining a wavelet transform which is robust to noise and unhomogeneous background, and a watershed algorithm based on intensities to split nuclei clusters. Mask of nuclei segmentation of the different fields were then stitched together in order to obtain a large segmentation of the whole well. Cell bodies were estimated by applying a morphological dilation on the nucleus segmentation using a disk of 30 pixels (48 μm) in diameter. In cells that are contiguous, such as in a cell colony, nuclei segmentation dilation will result in the formation of continuous region areas with surrounding cells which can then be identified as colonies.
(§7) Total cell number and spreading coefficient values for each well were then exported into an Excel sheet.

[2] = system: IGF-1-induced EMT in NBT-II cells; test: EMT spot migration assay, IGF-1-induced; conditions: IGF-1-induced EMT (150 ng/ml IGF-1), CDR dose response from 6.67 μM, read-out: Cell Dispersion IC 50, IGF-1
Method: as §1, §2, §3, §4, §5, §6, §7

[3] = system: HGF-induced EMT in NBT-II cells; test: EMT spot migration assay, HGF-induced; conditions: for IC50: HGF-induced EMT (4 ng/ml HGF), CDR dose response from 6.67 μM, read-out: Cell Dispersion IC 50, HGF
Method: as §1, §2, §3, §4, §5, §6, §7

E-cadherin = test: Western blot of EMT marker E-cadherin in growth factor-treated NBT-II cells; conditions: NBT-II cells, 0.5, 2 and 8 μM compound overnight, then EGF, HGF or IGF-1 for 24 h (FIG. 7)
Method: NBT-II cells were treated with compounds at 0.5, 2 and 8 μM overnight and incubated with a growth factor for 24 h. Cells were lysed with protease/phosphatase inhibitor-containing RIPA buffer. Proteins are separated in 8% polyacrylamide gels and transferred to PDVF membranes. Membranes were blocked in 5% BSA and incubated at 4° C. overnight with MMP-13 (Millipore), E-cadherin (BD) and α-tubulin (Sigma) primary antibodies. Membranes were then developed with HRP-conjugated secondary antibody (Amersham) and ECL substrate (Millipore).
The possibilities that ALK5, MEK, PI3K and SRC targeting compounds could modulate the expression of EMT markers, such as E-cadherin and matrix metalloproteinase-13 (MMP-13) under EMT-activated conditions were also investigated (FIG. 7). With the exception of P13K inhibitor GDC-0941, the compounds in general abrogated MMP-13 expression in growth factor-treated samples, PI3K inhibition has been previously shown to augment MMP-13 expression. […] These findings are consistent with previous reports showing that ALK5, MEK and SRC play a role in cell motility and tumor progression, while PI3K predominately regulates cell proliferation.

MMP-13 = test: Western blot of EMT marker MMP-13 in growth factor-treated NBT-II cells; conditions: NBT-II cells, 0.5, 2 and 8 μM compound overnight, then growth factor for 24 h (FIG. 7)
[4] = EGF-induced EMT (20 ng/ml EGF), NBT-II cells, CDR dose response from 6.67 μM

| Compound | IC50 [1, 4] [nM] | IC50 [2] [nM] | IC50 [3] [nM] | E-cadherin expression (E-cadherin) | IC50 [1] [nM] | MMP-13 expression (MMP-13) | Cell dispersion pattern at T2 (FIG. 1D) ([1]; NBT-II cells) | Inhibition of HGF-induced EMT (growth factor specificity) ([3]; spot migration assay) |
| --- | --- | --- | --- | --- | --- | --- | --- | --- |
| Cc1cccc(-c2nn(C(=S)Nc3ccccc3)cc2-c2ccnc3ccccc23)n1 [A83-01] | 69 | 120 | 130 | restored the E-cadherin protein levels |  |  |  |  |
| COc1cc2ncnc(Nc3cccc(Cl)c3)c2cc1OC [AG1478] | 330 | > 5000 | > 5000 |  |  |  |  |  |
| Cn1cnc2c(F)c(Nc3ccc(Br)cc3Cl)c(C(=O)NOCCO)cc21 [AZD6244] | 840 | 880 | 790 |  |  |  |  |  |
| Cc1cc(N2CCOCC2)cc2[nH]c(-c3c(NC[C@@H](O)c4cccc(Cl)c4)cc[nH]c3=O)nc12 [BMS-536924] | > 5000 | 170 | 2300 |  |  |  |  |  |
| O=C(NOCC1CC1)c1ccc(F)c(F)c1Nc1ccc(I)cc1Cl [CI-1040] | 1000 | 1200 | 820 |  |  |  |  |  |
| NC(=O)c1ccc(-c2nc(-c3ccc4c(c3)OCCO4)c(-c3ccccn3)[nH]2)cc1 [D4476] | 1100 | 1900 | 1400 |  |  |  |  |  |
| C#Cc1cccc(Nc2ncnc3cc(OCCOC)c(OCCOC)cc23)c1 [Erlotinib] |  | > 5000 | > 5000 |  | 950 |  |  |  |
| CS(=O)(=O)N1CCN(Cc2cc3nc(-c4cccc5[nH]ncc45)nc(N4CCOCC4)c3s2)CC1 [GDC-0941] | 740 | 500 | 380 | restored the E-cadherin protein levels |  | exception |  |  |
| Cn1cc(-c2ccc3nnc(C(F)(F)c4ccc5ncccc5c4)n3n2)cn1 [JNJ-38877605] | > 5000 | > 5000 | 94 |  |  |  |  |  |
| c1ccc(-c2[nH]ncc2-c2ccnc3ccccc23)nc1 [LY-364947] | 140 | 240 | 180 |  |  |  |  |  |
| CS(=O)(=O)CCNCc1ccc(-c2ccc3ncnc(Nc4ccc(OCc5cccc(F)c5)c(Cl)c4)c3c2)o1 [Lapatinib] | 620 | > 5000 | > 5000 |  |  |  |  |  |
| COc1cc2ncnc(Nc3cccc(Br)c3)c2cc1OC [PD153035] | 550 | > 5000 | > 5000 |  |  |  | pattern of inhibition |  |
| O=C(NOC[C@H](O)CO)c1ccc(F)c(F)c1Nc1ccc(I)cc1F [PD0325901] | 31 | 8.9 | 20 | augment E-cadherin expression |  |  |  |  |
| OCCn1cc(-c2cnc3nnn(Cc4ccc5ncccc5c4)c3n2)cn1 [PF-04217903] | > 5000 | > 5000 | 55 |  |  |  |  | specifically inhibited HGF-induced EMT |

More lines, main results first:

| IC50 [1, 4] [nM] | IC50 [2] [nM] | IC50 [3] [nM] | Compound | E-cadherin expression (E-cadherin) | IC50 [1] [nM] | MMP-13 expression (MMP-13) | Cell dispersion pattern at T2 (FIG. 1D) ([1]; NBT-II cells) | Inhibition of HGF-induced EMT (growth factor specificity) ([3]; spot migration assay) |
| --- | --- | --- | --- | --- | --- | --- | --- | --- |
| 1200 | > 5000 | > 5000 | CNc1cc2c(Nc3cccc(Br)c3)ncnc2cn1 [PD158780] |  |  |  |  |  |
| 680 | 400 | 380 | Oc1cccc(-c2nc(N3CCOCC3)c3oc4ncccc4c3n2)c1 [PI-103] |  |  |  |  |  |
| 950 | 620 | 400 | COc1ccc2c(c1OC)N=C(NC(=O)c1cccnc1)N1CCN=C21 [PIK-90] |  |  |  |  |  |
| 2300 | 1200 | 2000 | Cc1ccc(-c2nn(C(C)(C)C)c3ncnc(N)c23)cc1 [PP1] |  |  |  | pattern of inhibition |  |
| 1600 | 820 | 940 | NC(=O)c1ccc(-c2nc(-c3ccc4c(c3)OCO4)c(-c3ccccn3)[nH]2)cc1 [SB-431542] |  |  |  |  |  |
| 85 | 150 | 110 | Fc1ccc(Cl)cc1-c1nc(Nc2ccncc2)c2nccnc2n1 [SD-208] |  |  |  |  |  |
| 800 | > 5000 | > 5000 | COc1cc2ncnc(Nc3ccc(O)c(Br)c3)c2cc1OC [WHI-P154] |  |  |  |  |  |
| 850 | 660 | 410 | FC(F)c1nc2ccccc2n1-c1nc(N2CCOCC2)nc(N2CCOCC2)n1 [ZSTK474] |  |  |  |  |  |
